Reference: US9636324B2, “Use of 15-benzylidence-14-deoxy-11, 12 -dehyroandrographolide derivative in manufacture of medicaments for protecting liver and anti-hepatitis C virus” (Zhengzhou University, priority 2012, dated 2017)

Experiments:
[1] = test system: bovine viral diarrhea virus (BVDV-AV69); experiment: CPE observation of effects on cytopathy caused by BVDV in MDBK cells
Method: Pharmaceutical effects of drugs of the invention against cytopathy caused by inoculation of BVDV virus are investigated using MDBK (NBL-1) cells (purchased from Chinese Academy of Science's Shanghai Center for Type Culture Collection) and bovine viral diarrhea virus (BVDV-AV69) (purchased from China Institute of Veterinary Drugs Control). Ribavirin (R; Henan RunHong Pharmaceutical Co., Ltd; batch number: E0909604) is used as positive drug control. MDBK cells are prepared as a suspension (1×10^5/mL) in RPMI1640 culture medium which contains 10% in volume fetal bovine serum (Zhejiang Tianhang Biotechnology Co., Ltd; batch number: 100524), 100 μg/mL streptomycin (Shenzheng Huayao Nanfang Pharmaceutical Co., Ltd; batch number: N09081), 100 U/mL penicillin (North China Pharmaceutical Co., Ltd; batch number: E0909604), and are seeded in 96 well plates (Costar, US) at 200 μL/well, placed in an incubator (Binder, Germany) at 37° C. with 5% CO2 to culture the cell. In 24 h when cells grow into a single layer, virus solution of 100 TCID50 (TCID50=10^−2.5) is added and incubated for 1.5 h. Maintenance medium with the drug is added at 200 μL/well after 3×PBS washes.
After digestion of MDBK cells with trypsin, cells with a concentration of 1×10^5/mL are seeded into 96 well plates at 200 μL/well, placed in an incubator at 37° C. with 5% CO2 for 24 h. After growing into a single layer, cells are attacked using 100 TCID50 (TCID50=10^−2.5) virus and incubated for 1.5 h. The virus-containing maintenance medium is discarded, and cells are washed with PBS, followed by addition of drug-containing maintenance medium with different concentrations, and incubation in 5% CO2 at 37° C. Normal cell control, virus control, drug treatment and ribavirin treatment groups are set. The cytopathy developing status is recorded everyday by observing under an inverted microscope.

[2] = test system: MDBK (NBL-1) cells; experiment: MTT assay for cytotoxicity; format: cell-based, bovine; settings: 0-7.5 μmol/L, 48 h
Method: The drug-containing medium is added and further incubated for 48 h. MTT is added (5 mg/mL) at 20 μL/well and cultured for 4 h, the supernatant is discarded and 150 μL DMSO is added, then the plate is shaken for 10 minutes and the absorbance is determined using a microplate reader using the wavelength 570 nm and a reference wavelength 450 nm. The cell survival rate is calculated after treatment of compounds: cell survival rate (%)=drug group A value/cell control group A value×100%, and the results are shown in FIG. 10. Cell proliferation inhibition rate (%)=100%−survival rate (%), half maximal (50%) toxic concentration (TC50) is calculated according to Reed-Muench method.

[3] = test system: mice with ethanol induced liver damage; experiment: Ethanol induced liver damage model in mice; format: in vivo, Kunming mice
Method: Kunming mice of clean grade (male, weight 20±2 g), after adaptively fed for 3 days, are randomly divided into normal group, model group, bifendate positive control group (200 mg/kg), AD group (0.88 mmol/kg), low (0.44 mmol/kg), median (0.66 mmol/kg) and high (0.88 mmol/kg) dosage groups of compound A, and median (0.66 mmol/kg) and high (0.88 mmol/kg) dosage groups of compound B, with 8 mice in each group. Positive group and each test group are intragastrically given with respective suspension prepared with 0.5% CMC-Na, and normal group and model group are given with 0.5% CMC-Na. The drugs are given for 3 days, and 1 h after the last administration, all mice except those in the normal group are intragastrically administrated with a single dose of 50% EtOH ([…]). After 16 h, the eyeball of the mice in each group is enucleated to collect blood, which is centrifuged at 3000 rpm for 15 min to separate serum. ALT and AST activities are tested respectively (Nanjing Jiancheng Bioengineering Institute). The left lobe of liver is taken to prepare 10% homogenate using physiological saline, MDA (Nanjing Jiancheng Bioengineering Institute) content is determined. Experimental data are expressed as average±standard deviation (X±s), analyzed with SPSS 11.5 statistic software, with P<0.05 meaning there is a significant difference. Other agents, drugs and experimental methods are the same as in EXAMPLE 1.

[4] = dosage groups not distinguished, P<0.01

C=C1CCC2C(C)(CO)C(O)CCC2(C)C1C=CC1=CC(=Cc2ccc(Cl)cc2)OC1=O (stereo not shown) [Compound A]
antiviral effect compared with AD ([1]; BVDV in MDBK cells): better antiviral effect than AD
pharmaceutical effect against cytopathy caused by virus compared with ribavirin ([1]; BVDV in MDBK cells): better than ribavirin
TI value (therapy index, TC50/IC50) ([1]; MDBK cells, BVDV-AV69, TC50 from MTT, IC50 from CPE): >127.6
cytotoxicity to MDBK cells [2]: do not show obvious cytotoxcity
ALT activity in serum vs model group [3, 4]: effectively suppress
AST activity in serum vs model group [3, 4]: effectively suppress
MDA content in liver homogenate vs model group [3, 4]: effectively reduce the MDA content
AST activity decreasing magnitude compared with AD group ([3]; high dosage 0.88 mmol/kg, P<0.01): notably larger
ALT activity decreasing magnitude compared with AD group ([3]; high dosage 0.88 mmol/kg, P<0.01 (A), P<0.05 (B)): notably larger
protective effect against liver damage induced by ethanol (summary) ([3]; mice, intragastric, 3 days): protective effect
